Patent US6369052B1, “Combination of huperzine and nicotinic compounds as a neuroprotective agent” (Georgetown University, priority 2000, dated 2002)
Where two headings read alike, the source gives them in different places.

Legend:
Assay type in all cases: cell-based
[1] = tested on: neuronal-glial cultures from mouse cerebral cortical cultures; test: NMDA-induced cell toxicity in mixed cortical cultures, low drug concentrations, LDH release (Example 3)
[2] = tested on: mixed cortical cultures from mouse brain; test: NMDA-induced cell toxicity in mixed cortical (neuronal-glial) cultures, LDH release (Example 1)
Experimental: Graph B represents the dose-dependent effect of (−)-huperzine A alone (unfilled circles) and in the presence (filled circles) of 10 μM (−)-nicotine. Toxicity was induced by a 10 minute treatment with 75 μM NMDA in the absence or presence of the indicated drugs.
In a first experiment, four samples each containing neuronal-glial cultures from mouse cerebral cortical cultures and a different concentration of (−)-nicotine (ranging from 0 to 100 μM) were treated for 10 minutes with 75 μM of NMDA (commercially available, for example, from Sigma Chemical Co., St. Louis, Mo.) to induce cell death. The cultures were prepared from 15-day-old fetal Swiss-Webster mice, as described in Bruno et al., 1998 Neuroscience 85:751-7 (hereinafter “Bruno et al.”), incorporated herein by reference. Neuronal cells were plated in 96-well plates on a layer of confluent glial cells at a density of 200,000 cells/well in EMEM medium containing 5% fetal bovine serum and 5% horse serum. Then the NMDA was removed replacing the medium with fresh serum-free culture medium and cell death was assessed for each sample by measuring the amount of lactate dehydrogenase (“LDH”) released into the medium according to the procedure described in Bruno et al. The data are summarized in FIG. 1, Graph A, as lines connecting the values (represented by unfilled squares) of % of NMDA toxicity (i.e., % cell death) at the corresponding concentration of (−)-nicotine in μM.
In a second experiment, six samples each containing neuronal-glial cultures from mouse brain and a different concentration of (−)-huperzine A (ranging from 0 to 10 μM) were treated with 75 μM of NMDA, using the above-described procedure. Then cell death was assessed for each sample using the procedure described above. The data are summarized in FIG. 1, Graph B, as lines connecting the values (represented by unfilled circles) of % of NMDA toxicity at the corresponding concentration of (−)-huperzine A in μM.
In a third experiment, six samples each containing neuronal-glial cultures from mouse brain, a different concentration of (−)-huperzine A (ranging from 0 to 10 μM), and a fixed concentration of 10 μM of (−)-nicotine were treated with 75 μM NMDA, using the procedure described above. Then cell death was assessed for each sample as above. The data are summarized in FIG. 1, Graph B, as lines connecting the values (represented by black-filled circles) of % of NMDA toxicity at the corresponding μM-concentration of(−)-huperzine A.

[3] = tested on: cultures of granule neurons prepared from mouse cerebellum; test: β-amyloid-peptide-induced cell toxicity in cerebellar granule neurons, LDH release (Example 2)
Experimental: Toxicity was induced by a 48 hour treatment with 25 μM β-amyloid peptide in the absence or presence of the indicated drugs.
In a first experiment, four samples each containing cultures of granule neurons prepared from mouse cerebellum and a different concentration of (−)-nicotine (ranging from 0 to 100 μM) were treated for 48 hours with 25 μM β-amyloid peptide (“AP”) (commercially available, for example, from Bachem, Inc., Torrance, Calif.) to induce cell death, according to the procedure described in Copani et al., 1995 Mol Pharmacol 47:890-7 (hereinafter “Copani et al.”).
Then cell death was assessed by measuring the amount of LDH released into the medium according to the procedure described in Bruno et al. The data are summarized in FIG. 2, Graph A, as lines connecting the values (represented by unfilled squares) of % of β-amyloid-peptide-induced toxicity (i.e., % cell death) at the corresponding concentration of nicotine in μM.
In a second experiment, four samples each containing cultures of granule neurons prepared from mouse cerebellum and a different concentration of (−)-huperzine A (ranging from 0 to 10 μM), were treated for 48 hours with 25 μM AP, (25-35 fragment) according to the above-described procedure. Then cell death was assessed as described above. The data are summarized in FIG. 2, Graph B, as lines connecting the values (represented by unfilled circles) of % of β-amyloid-peptide-induced toxicity at a particular concentration of (−)-huperzine A in μM.
In a third experiment, 4 samples each containing cultures of granule neurons prepared from mouse cerebellum, a different concentrations of (−)-huperzine A (ranging from 0 to 10 μM), and a fixed concentration of 10 μM of (−)-nicotine were treated for 48 hours with 25 μM AP using the procedure described above. Then cell death was assessed as above. The data are summarized in FIG. 2, Graph B, as lines connecting the values (represented by black-filled circles) of % of β-amyloid-peptide-induced toxicity at a particular μM-concentration of (−)-huperzine A.

[4] = drug alone, 75 μM NMDA for 10 minutes, FIG. 1
[5] = drug alone, nicotine 0-100 μM, huperzine A 0-10 μM
[6] = drug alone, 25 μM β-amyloid peptide for 48 hours, FIG. 2

| SMILES | neuroprotective effect ([1]; (−)-huperzine A alone, 1-1000 nM, 100 μM NMDA for 10 minutes) | cell death (% of NMDA toxicity) at maximal neuroprotection [2, 4] [%] | maximal level of neuroprotection [2, 4] | NMDA-induced cell death [2, 5] | cell death (% of β-amyloid-peptide-induced toxicity) at maximal neuroprotection [3, 6] [%] | maximal level of neuroprotection [3, 6] | toxicity induced by 25 μM AP [3, 5] | neuroprotective effect [1] | NMDA-induced cell death [2] | cell death (% of NMDA toxicity) at maximal neuroprotection [2] [%] | maximal level of neuroprotection [2] | neuroprotection [2] | cell death (% of β-amyloid-peptide-induced toxicity) at maximal neuroprotection [3] [%] | maximal level of neuroprotection [3] | neuroprotection [3] | toxicity induced by 25 μM AP [3] |
| --- | --- | --- | --- | --- | --- | --- | --- | --- | --- | --- | --- | --- | --- | --- | --- | --- |
| C/C=C1\[C@H]2C=C(C)C[C@]1(N)c1ccc(=O)[nH]c1C2 [(−)-huperzine A] | no significant neuroprotective effects | 55 | about 45% | decreased in a dose-dependent manner | 70 | about 30% | decreased in a dose-dependent manner |  |  |  |  |  |  |  |  |  |
| CN1CCCC1c1cccnc1 (single isomer, unassigned; (-)) [(−)-nicotine] |  |  |  |  |  |  |  | little effect | decreased in a dose-dependent manner | 45 | about 55% | about 40% | 45 | about 55% | about 20% | decreased in a dose-dependent manner |
